Measurements from ChEMBL document CHEMBL1201862, “PubChem BioAssay data set” (2004).
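Dose response: 5 concentrations. Exposure: 48 h. Format: 96-well plates. Endpoint: linear interpolation; highest concentration if not reached. The concentration for 50% growth inhibition is given as GI50.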 Activity calls are given as the source filed them. No stated cut-off is given here; in the data, active = GI50 up to about 1.1 µM and inactive = higher.

Experiments:
Assay in all cases: inhibition of tumour cell growth, NCI panel, 48 h
[1] = tested on: 786-0
[2] = tested on: A549
[3] = tested on: ACHN
[4] = tested on: COLO 205
[5] = tested on: M14
[6] = tested on: MDA-MB-231
[7] = tested on: MDA-MB-435
[8] = tested on: NCI-H23
[9] = tested on: NCI-H522
[10] = tested on: OVCAR-4
[11] = tested on: SK-MEL-2
[12] = tested on: SK-OV-3
[13] = tested on: SW-620
[14] = tested on: T47D
[15] = tested on: UO-31
[16] = tested on: K562
[17] = tested on: SK-MEL-28
[18] = tested on: HL-60

| Compound | GI50 [1] | GI50 [2] | GI50 [3] | GI50 [4] | GI50 [5] | GI50 [6] | GI50 [7] | GI50 [8] | GI50 [9] | GI50 [10] | GI50 [11] | GI50 [12] | GI50 [13] | GI50 [14] | GI50 [15] | GI50 [16] | GI50 [17] | GI50 [18] |
| --- | --- | --- | --- | --- | --- | --- | --- | --- | --- | --- | --- | --- | --- | --- | --- | --- | --- | --- |
| CCCCNC(=S)Nc1nc(C(=O)NNC(=S)NCC)cs1 | > 100 µM (inactive) | > 100 µM (inactive) | 31.6 µM (inactive) | 62.5 µM (inactive) | > 100 µM (inactive) | 99.8 µM (inactive) | > 100 µM (inactive) | > 100 µM (inactive) | > 100 µM (inactive) | 73.1 µM (inactive) | > 100 µM (inactive) | > 100 µM (inactive) | 97.9 µM (inactive) | 16.7 µM (inactive) | 31.6 µM (inactive) | – | – | – |
| COc1ccc(-n2cnc3c(NC(Cc4ccccc4)C(=O)O)ncnc32)cc1 (stereo not given) | > 100 µM (inactive) | > 100 µM (inactive) | > 100 µM (inactive) | > 100 µM (inactive) | > 100 µM (inactive) | > 100 µM (inactive) | > 100 µM (inactive) | > 100 µM (inactive) | – | > 100 µM (inactive) | > 100 µM (inactive) | > 100 µM (inactive) | > 100 µM (inactive) | 92.7 µM (inactive) | > 100 µM (inactive) | > 100 µM (inactive) | > 100 µM (inactive) | – |
| CC1=CC2=C(C=O)C(=O)[C@](C)(O)[C@@H](O)C2=CO1 | – | 28 µM (inactive) | – | 28.1 µM (inactive) | – | – | – | 37.2 µM (inactive) | 17.2 µM (inactive) | 39.1 µM (inactive) | 24.2 µM (inactive) | 19.5 µM (inactive) | 29.4 µM (inactive) | – | 16.8 µM (inactive) | 27.9 µM (inactive) | 25.2 µM (inactive) | – |
| N#Cc1c(N2CCCC2)nsc1Nc1ccccc1 | > 100 µM (inactive) | > 100 µM (inactive) | > 100 µM (inactive) | > 100 µM (inactive) | > 100 µM (inactive) | > 100 µM (inactive) | – | > 100 µM (inactive) | – | > 100 µM (inactive) | > 100 µM (inactive) | – | > 100 µM (inactive) | > 100 µM (inactive) | > 100 µM (inactive) | > 100 µM (inactive) | > 100 µM (inactive) | > 100 µM (inactive) |
| COC1(C(C)(C)C)C=C(C(C)(C)C)P(=O)(O)O1 (stereo not given) | > 100 µM (inactive) | > 100 µM (inactive) | > 100 µM (inactive) | > 100 µM (inactive) | > 100 µM (inactive) | – | > 100 µM (inactive) | > 100 µM (inactive) | > 100 µM (inactive) | > 100 µM (inactive) | > 100 µM (inactive) | > 100 µM (inactive) | > 100 µM (inactive) | 1.36 µM (inactive) | – | > 100 µM (inactive) | > 100 µM (inactive) | > 100 µM (inactive) |
| Cc1ccc(S(=O)(=O)N2CC2CCCCC=O)cc1 (stereo not given) | 40.6 µM (inactive) | > 100 µM (inactive) | 31.3 µM (inactive) | > 100 µM (inactive) | 51.3 µM (inactive) | > 100 µM (inactive) | > 100 µM (inactive) | > 100 µM (inactive) | 72.8 µM (inactive) | > 100 µM (inactive) | > 100 µM (inactive) | > 100 µM (inactive) | 52.7 µM (inactive) | > 100 µM (inactive) | 85.5 µM (inactive) | 32.6 µM (inactive) | > 100 µM (inactive) | – |
| COc1ccc(/C(=N\Nc2ccccn2)c2ccccn2)cc1 | < 0.0162 µM (active) | 0.149 µM (active) | < 0.01 µM (active) | < 0.01 µM (active) | < 0.01 µM (active) | < 0.0193 µM (active) | 0.156 µM (active) | 0.0272 µM (active) | < 0.01 µM (active) | 11.4 µM (inactive) | 3.37 µM (inactive) | 0.107 µM (active) | < 0.01 µM (active) | – | 0.0405 µM (active) | < 0.0107 µM (active) | 0.336 µM (active) | < 0.01 µM (active) |
| C[C@]1(O)CC(=O)c2c(c(-c3ccc4cc5c(c(O)c4c3O)C(=O)C[C@@](C)(O)C5)c3cccc(O)c3c2O)C1 | 5.37 µM (inactive) | 4.24 µM (inactive) | 4.04 µM (inactive) | 1.79 µM (inactive) | 5.56 µM (inactive) | 4.91 µM (inactive) | 7.05 µM (inactive) | 3.69 µM (inactive) | 4.88 µM (inactive) | 7 µM (inactive) | 2.52 µM (inactive) | 10.3 µM (inactive) | 6 µM (inactive) | 2.86 µM (inactive) | 4.16 µM (inactive) | 11.9 µM (inactive) | 10.4 µM (inactive) | – |
| [N-]=[N+]=Nc1c(Cl)c(Cl)nc2ccccc12 | > 100 µM (inactive) | > 100 µM (inactive) | 91.4 µM (inactive) | > 100 µM (inactive) | > 100 µM (inactive) | 81.5 µM (inactive) | > 100 µM (inactive) | 75.5 µM (inactive) | 71.3 µM (inactive) | 85.7 µM (inactive) | > 100 µM (inactive) | > 100 µM (inactive) | 93.8 µM (inactive) | 68.1 µM (inactive) | > 100 µM (inactive) | 81.3 µM (inactive) | > 100 µM (inactive) | – |
| NCCCCCCn1c(-c2ccc(Br)cc2)cs/c1=N\c1ccccc1 | 10.2 µM (inactive) | 12.5 µM (inactive) | 14.6 µM (inactive) | 1.79 µM (inactive) | 1.44 µM (inactive) | 14.4 µM (inactive) | 10.8 µM (inactive) | 14.7 µM (inactive) | 10.5 µM (inactive) | 12.7 µM (inactive) | 18.6 µM (inactive) | 17.2 µM (inactive) | 4.28 µM (inactive) | 5.08 µM (inactive) | 10.4 µM (inactive) | 2.01 µM (inactive) | 12.7 µM (inactive) | – |
| Cc1c/c(=N\c2ccc3c(c2)c(N)cc(C)[n+]3C)nc(N)n1C | > 100 µM (inactive) | > 100 µM (inactive) | > 100 µM (inactive) | > 100 µM (inactive) | > 100 µM (inactive) | > 100 µM (inactive) | > 100 µM (inactive) | > 100 µM (inactive) | > 100 µM (inactive) | > 100 µM (inactive) | > 100 µM (inactive) | > 100 µM (inactive) | > 100 µM (inactive) | > 100 µM (inactive) | > 100 µM (inactive) | > 100 µM (inactive) | > 100 µM (inactive) | – |
| COc1ccc(C(O)c2ccccn2)cc1 (stereo not given) | > 100 µM (inactive) | > 100 µM (inactive) | > 100 µM (inactive) | > 100 µM (inactive) | > 100 µM (inactive) | > 100 µM (inactive) | > 100 µM (inactive) | > 100 µM (inactive) | > 100 µM (inactive) | > 100 µM (inactive) | > 100 µM (inactive) | > 100 µM (inactive) | > 100 µM (inactive) | > 100 µM (inactive) | – | > 100 µM (inactive) | > 100 µM (inactive) | – |
| N#CC1(C#N)C2CCCCC23OC(=N)C1(C#N)C(c1ccccc1)O3 (stereo not given) | 14.6 µM (inactive) | > 100 µM (inactive) | 36.1 µM (inactive) | 13.4 µM (inactive) | 12.7 µM (inactive) | 16.4 µM (inactive) | 25.6 µM (inactive) | 30.5 µM (inactive) | – | – | 20.2 µM (inactive) | > 100 µM (inactive) | 14.8 µM (inactive) | 17.5 µM (inactive) | 34.8 µM (inactive) | 7.11 µM (inactive) | > 10 µM (inactive) | – |
| NC(CSC(=O)c1ccccc1)C(=O)O (stereo not given) | > 100 µM (inactive) | > 100 µM (inactive) | > 100 µM (inactive) | > 100 µM (inactive) | > 100 µM (inactive) | > 100 µM (inactive) | > 100 µM (inactive) | > 100 µM (inactive) | > 100 µM (inactive) | > 100 µM (inactive) | > 100 µM (inactive) | > 100 µM (inactive) | > 100 µM (inactive) | – | > 100 µM (inactive) | – | > 100 µM (inactive) | > 100 µM (inactive) |
| O=[N+]([O-])c1ccc(O)c(/C=N/CC2CCCN3CCCCC23)c1 (stereo not given) | 38.8 µM (inactive) | 91.4 µM (inactive) | 26.9 µM (inactive) | 24.2 µM (inactive) | 19.6 µM (inactive) | 88.1 µM (inactive) | – | 46.7 µM (inactive) | 26 µM (inactive) | – | – | 29.6 µM (inactive) | – | – | 34.8 µM (inactive) | – | – | – |
| COc1cc([N+](=O)[O-])c(S(=O)(=O)O)cc1-n1nc(C(=O)Nc2ccccc2)n[n+]1-c1cc(S(=O)(=O)[O-])c([N+](=O)[O-])cc1OC | > 100 µM (inactive) | > 100 µM (inactive) | 93.8 µM (inactive) | > 100 µM (inactive) | > 100 µM (inactive) | – | 85.5 µM (inactive) | > 100 µM (inactive) | > 100 µM (inactive) | > 100 µM (inactive) | > 100 µM (inactive) | > 100 µM (inactive) | > 100 µM (inactive) | – | > 100 µM (inactive) | 88.7 µM (inactive) | > 100 µM (inactive) | > 100 µM (inactive) |
| CC(=O)C1C(=O)C(=O)N(c2ccc([N+](=O)[O-])cc2[N+](=O)[O-])C1=O (stereo not given) | > 100 µM (inactive) | > 100 µM (inactive) | > 100 µM (inactive) | > 100 µM (inactive) | > 100 µM (inactive) | > 100 µM (inactive) | > 100 µM (inactive) | > 100 µM (inactive) | > 100 µM (inactive) | > 100 µM (inactive) | > 100 µM (inactive) | 83.6 µM (inactive) | > 100 µM (inactive) | – | 59.3 µM (inactive) | – | > 100 µM (inactive) | > 100 µM (inactive) |
| COc1ccc(-c2cc(O)c3cc(C)cnc3n2)cc1 | – | 8.65 µM (inactive) | 7.06 µM (inactive) | 3.22 µM (inactive) | 3.94 µM (inactive) | 16.2 µM (inactive) | 1.85 µM (inactive) | 6.19 µM (inactive) | 4.01 µM (inactive) | 33.9 µM (inactive) | 3.5 µM (inactive) | 4.14 µM (inactive) | 3.24 µM (inactive) | 5.38 µM (inactive) | 7.85 µM (inactive) | 2.29 µM (inactive) | 28.6 µM (inactive) | – |
